This note sets out measurements from US11039613B2, “Germination promoters” (SYNGENTA PARTICIPATIONS AG, priority 2017, dated 2021).

One data set can be described thus: Hydrolytic stability. The class given is physicochemical. The settings on record: 40° C.; for half-life: aqueous buffer/acetonitrile solution, pH 9, pH 9, buffer/acetonitrile. On the procedure:
Prior to conducting the individual hydrolytic stability assays, stock solutions containing 1000 ppm of each test compound (i.e. compounds III-1 and P1) were prepared in acetonitrile.
The reagents used in the assays were prepared as follows. A 20 mM buffer solution was prepared from a stock solution of 20 mM mixed acetate, borate and phosphate buffer and the pH adjusted to 7 or 9 as required.
Test solutions were prepared in LC vials for each test compound in the following manner: Hydrolytic Stability: Buffer (750 μL)+acetonitrile (250 μL)+compound stock solution (2 to 40 μL).
The buffers were initially dispensed into separate glass LC vials, placed into an autosampler complete with thermostat set at 40° C. and allowed to equilibrate for 30 minutes prior to starting the individual assays.
Analysis was carried out on Waters LCMS systems under reverse phase conditions using 10 cm C18 columns and acetonitrile (HPLC grade) acidified water (0.2% formic acid) mobile phase at a flow rate of 1 ml min-1. Peak detection was at the optimum wavelength (230-250 nm) and peak areas were used for quantification
Reactions were initiated by addition of the compound solution and monitored through a series of repeat injections made directly from the vial into the HPLC system at regular time intervals. Initial and subsequent measurements of peak area attributable to the test compound were used to fit exponential half-lives and calculate first-order rate constants.
Consequently, the percentage of compound remaining was recorded at the last assessment time.

In data set [1] the test system is NK Falkone corn seeds. Description: Corn seed germination, salt (NaCl, 100 mM) stress and optimal temperature (23° C.). The class given is in vivo. The conditions noted are these: salt (NaCl) stress. As to the method: (§1) NK Falkone corn seeds (harvested in 2015) were sorted by size using a sieve to keep away round seeds.
The corn seeds were placed in 24 well plates (each plate was considered as one experimental unit or replicate). […] 8 replicates (i.e. 8 plates) were used for each treatment characterization. Plates were sealed using seal foil (Polyolefin Art. Nr. 900320) from HJ-BIOANALYTIK. All plates were placed in two carrousels in a climatic chamber at 15° C. The experiment was laid out in a completely randomized design in climatic chamber with 60% Relative Humidity.
(§2) Germination was followed over time by taking photographs at different time points. Image analysis was performed automatically with a macro which was developed using the Image J software. A dynamic analysis of germination was carried out by fitting a logistic curve. Three parameters were calculated from the logistic curve: the T50; the slope and the plateau. All three parameters have a high agronomical relevance and are key requirements to ensure a good early crop-establishment. The T50 and slope for a selection of compounds are outlined in Table 2 below. All the values are expressed as percentages compared to an untreated control. All the three parameters are calculated considering 8 replicates and the kinetic parameters are separately determined for each germination curve. Data in bold indicate germination enhancing statistically significant differences between treated seeds and untreated control (p<0.05). T50 corresponds to the time needed for half of the seed population to germinate. Higher negative %-values indicate faster germination. Slope indicates how synchronous the germination of the seed population is. Positive values indicate steeper curve. The steeper the curve, the better and more uniform the germination is.
The experimental protocol was the same as in Example B1, except that the plates were placed in a climatic chamber at 23° C.

The subject of data set [2] is NK Falkone corn seeds. As to the kind of experiment: Corn seed germination, osmotic stress (PEG 2%) and cold stress (15° C.). It is filed as in vivo. The conditions noted are these: osmotic (PEG 2%) and cold 15° C. As to the method:
as §1
(§3) The corn seeds were placed in 24 well plates (each plate was considered as one experimental unit or replicate). Germination was initiated by the addition of 200 μl of distilled water containing 0.5% DMSO per well. 8 replicates (i.e. 8 plates) were used for each treatment characterization. Plates were sealed using seal foil (Polyolefin Art. Nr. 900320) from HJ-BIOANALYTIK. All plates were placed in two carrousels in a climatic chamber at 15° C. The experiment was laid out in a completely randomized design in climatic chamber with 60% Relative Humidity.
as §2
(§4) The effect of compounds of Formula (III-1 and P1) on the germination of NK Falkone corn seeds under salt and cold stress was evaluated as follows.
The experimental protocol was the same as in Example B1, except that germination was initiated by the addition of 200 μl of distilled water containing 0.5% DMSO and 2% PEG per well.

In data set [3] the test system is NK Falkone corn seeds. As to the kind of experiment: Corn seed germination, cold stress (15° C.). The class given is in vivo. The conditions noted are these: for T50 (% vs control): control T50 = 110 hours; for Slope compared with closest prior art compound P2 / T50 compared with closest prior art compound P2: at equivalent rates, vs P2. On the procedure:
The effect of compounds of Formula (II-1 and III-1) on the germination of NK Falkone corn seeds under salt and cold stress was evaluated as follows.
as §1, §3, §2

The subject of data set [4] is NK Falkone corn seeds. Description: Corn seed germination, salt (NaCl, 100 mM) and cold stresses (15° C.). It is filed as in vivo. The settings on record: cold 15° C. and salt 100 mM NaCl. As to the method: as §1, §3, §2, §4
The experimental protocol was the same as in Example B1, except that germination was initiated by the addition of 200 μl of distilled water containing 0.5% DMSO and 100 mM NaCl per well.

SMILES strings stand for the structures. Where two headings read alike, the source gives them in different places.

Consider `CC1=CC(O/C=C2/C(=O)NC3c4ccccc4CC23)N(c2cc(C(F)(F)F)cc(C(F)(F)F)c2)C1=O` (stereo not shown) [Compound P1, reference compound], for which the half-life in the data set “Hydrolytic stability” (less polar isomer, read-out: Hydrolytic stability pH9 (t½), less polar isomer (converted)) is 59 h; in the data set “Hydrolytic stability” (more polar isomer, read-out: Hydrolytic stability pH9 (t½), more polar isomer), > 59 h. Moreover, in “Hydrolytic stability” (pH 9, at 17.3 hours, less polar isomer), the “% remaining, less polar isomer” value amounted to 85.5% remaining at 17.3 hours. Also, the “% remaining, more polar isomer” value in “Hydrolytic stability” (pH 9, at 17.3 hours, more polar isomer) is recorded as 97.9% remaining at 17.3 hours. For the same molecule, the “Slope (% vs control)” value in the data set on NK Falkone corn seeds [1] (Rate 0.4 μM) is reported as 4.1 % vs control; in the data set on NK Falkone corn seeds [1] (Rate 2 μM), 2.8 % vs control; with NK Falkone corn seeds [1] (Rate 10 μM) it was 70.8 % vs control; in the data set on NK Falkone corn seeds [1] (Rate 50 μM), 111.4 % vs control; with NK Falkone corn seeds [2] (Rate 0.4 μM) it was 2.7 % vs control; in the data set with NK Falkone corn seeds [2] (Rate 2 μM) it was 3.2 % vs control. The “Slope (% vs control)” value in the data set with NK Falkone corn seeds [2] (Rate 10 μM) is 20.9 % vs control; in the data set with NK Falkone corn seeds [2] (Rate 50 μM), 1.3 % vs control; in the data set on NK Falkone corn seeds [3] (Rate 0.4 μM) it was 18.4 % vs control; in the data set with NK Falkone corn seeds [3] (Rate 2 μM), 7.36 % vs control; with NK Falkone corn seeds [3] (Rate 10 μM), 63.91 % vs control; with NK Falkone corn seeds [3] (Rate 50 μM) it was 144.52 % vs control. Moreover, the “Slope (% vs control)” value in the data set with NK Falkone corn seeds [4] (Rate 0.4 μM) was 14.2 % vs control; in the data set on NK Falkone corn seeds [4] (Rate 2 μM), 11.7 % vs control; in the data set on NK Falkone corn seeds [4] (Rate 10 μM), 83.9 % vs control; in the data set on NK Falkone corn seeds [4] (Rate 50 μM), 61.2 % vs control. Besides, the “T50 (% vs control)” value in the data set with NK Falkone corn seeds [1] (Rate 0.4 μM) is −0.4 % vs control; in the data set on NK Falkone corn seeds [1] (Rate 2 μM), 3.3 % vs control; in the data set on NK Falkone corn seeds [1] (Rate 10 μM), −10.2 % vs control; in the data set with NK Falkone corn seeds [1] (Rate 50 μM), −15.2 % vs control; in the data set with NK Falkone corn seeds [2] (Rate 0.4 μM), −0.8 % vs control; in the data set on NK Falkone corn seeds [2] (Rate 2 μM), −0.8 % vs control. The “T50 (% vs control)” value in the data set on NK Falkone corn seeds [2] (Rate 10 μM) is −2.8 % vs control; with NK Falkone corn seeds [2] (Rate 50 μM) it was −4.3 % vs control; with NK Falkone corn seeds [3] (Rate 0.4 μM), −2.2 % vs control; in the data set with NK Falkone corn seeds [3] (Rate 2 μM), −1.4 % vs control; in the data set on NK Falkone corn seeds [3] (Rate 10 μM), −8.95 % vs control; in the data set with NK Falkone corn seeds [3] (Rate 50 μM), −11.7 % vs control. Further, the “T50 (% vs control)” value with NK Falkone corn seeds [4] (Rate 0.4 μM) is 0.5 % vs control; in the data set on NK Falkone corn seeds [4] (Rate 2 μM), −0.3 % vs control; in the data set on NK Falkone corn seeds [4] (Rate 10 μM), −10.7 % vs control; with NK Falkone corn seeds [4] (Rate 50 μM), −5.1 % vs control.

As for `CC1=CC(O/C=C2/C(=O)OC3c4ccccc4CC23)N(c2cc(C(F)(F)F)cc(C(F)(F)F)c2)C1=O` (stereo not shown) [Compound P2, reference compound], the “Slope (% vs control)” value in the data set on NK Falkone corn seeds [3] (Rate 2 μM) was −19.5 % vs control; in the data set on NK Falkone corn seeds [3] (Rate 10 μM), −13.4 % vs control; in the data set with NK Falkone corn seeds [3] (Rate 50 μM), −19.7 % vs control. Besides, the results for the “T50 (% vs control)” value in the data set on NK Falkone corn seeds [3] (Rate 2 μM), in the data set on NK Falkone corn seeds [3] (Rate 10 μM) and in the data set on NK Falkone corn seeds [3] (Rate 50 μM) were −0.8 % vs control, −2.0 % vs control and −0.9 % vs control, respectively.

With `CC1=C[C@H](O/C=C2/C(=O)O[C@@H]3Cc4ccccc4[C@H]23)N(c2cc(C(F)(F)F)cc(C(F)(F)F)c2)C1=O` [II-1a], in the data set with NK Falkone corn seeds [3] (Rate 10 μM), the “Slope (% vs control)” value is given as 18.70 % vs control and the “T50 (% vs control)” value is listed as −2.70 % vs control. Further, in the data set on NK Falkone corn seeds [3] (Rate 50 μM), the “Slope (% vs control)” value is on record as 68.50 % vs control and the “T50 (% vs control)” value is recorded as −5.30 % vs control. For the same molecule, in the data set on NK Falkone corn seeds [3] (Rate 250 μM), the “Slope (% vs control)” value was found to be 37.00 % vs control and the “T50 (% vs control)” value is recorded as −3.20 % vs control. Further, in the data set with NK Falkone corn seeds [3], the “Slope compared with closest prior art compound P2” value was “higher slope” and the “T50 compared with closest prior art compound P2” value is reported as “lower T50”.

As for `CC1=C[C@@H](O/C=C2/C(=O)O[C@@H]3Cc4ccccc4[C@H]23)N(c2cc(C(F)(F)F)cc(C(F)(F)F)c2)C1=O` [II-1b], the “Slope (% vs control)” value in the data set with NK Falkone corn seeds [3] (Rate 10 μM) was found to be 19.20 % vs control; in the data set on NK Falkone corn seeds [3] (Rate 50 μM), 41.40 % vs control; with NK Falkone corn seeds [3] (Rate 250 μM), 62.40 % vs control. In addition, the “T50 (% vs control)” value with NK Falkone corn seeds [3] (Rate 10 μM) is −2.50 % vs control; with NK Falkone corn seeds [3] (Rate 50 μM), −5.10 % vs control; with NK Falkone corn seeds [3] (Rate 250 μM) it was −5.90 % vs control. The “Slope compared with closest prior art compound P2” value with NK Falkone corn seeds [3] is on record as “higher slope”. In addition, in the data set on NK Falkone corn seeds [3], the “T50 compared with closest prior art compound P2” value is given as “lower T50”.
